Results: patent US20230392126A1, “TISSUE ORGANOIDS” (priority 2016, published 2023)

Tests used:
mouse epidermal cells = experiment: Secretion of GLP1 in cell culture medium by ELISA (mouse epidermal cells); assay type: cell-based
insulinoma cells = experiment: Insulin secretion of starved insulinoma cells treated with conditioned medium (ELISA); assay type: cell-based
[1] = Intraperitoneal insulin tolerance test (ITT) in grafted mice; assay type: in vivo, mouse; conditions: vs control mice or GLP1 mice without doxycycline
Method: For glucose and insulin tolerance tests, an intraperitoneal glucose tolerance test (IPGTT) was performed on mice fed an HFD for 10 weeks. Mice were fasted for 6 h before the test. Animals were injected (1 g/kg glucose/body weight, i.p.) with glucose dissolved in saline, and blood glucose was measured at 0, 30, 60 and 90 min using glucose test strips and glucose meters. An intraperitoneal insulin tolerance test was carried out 1 week after IPGTT. Mice were fasted for 4 h and injected (2 U/kg, i.p.) with insulin purchased from Sigma (St. Louis, MO). Blood glucose levels were determined thereafter at 0, 30, 60 and 90 min.
To examine glucose homeostasis, IPGTT (intraperitoneal glucose tolerance test) and ITT (insulin tolerance test) were performed.

[2] = Stability and tolerance of transplanted skin organoids in immunocompetent hosts; assay type: in vivo, mouse; conditions: CD1 hosts
Source text: For grafting with skin organoids, CD1 (isogenic mouse keratinocyte transplantation) males or Nude (human keratinocyte transplantation) females with the ages of 6-8 weeks were anesthetized. A silicone chamber bottom with the interior diameter of 0.8 cm and the exterior diameter of 1.5 cm was implanted on its shaved dorsal mid-line skin, which was used to hold the skin graft. A chamber cap was installed to seal the chamber right after a piece of graft was implanted. About one week later, the chamber cap was removed to expose the graft to air. A single dose of 0.2 mg α-CD4 (GK1.5) and 0.2 mg α-CD8 (2.43.1) antibodies was administered intraperitoneally for skin grafting.
Optical imaging was performed in the integrated small animal imaging research resource (iSAIRR) at the University of Chicago. Bioluminescence images were acquired on an IVIS Spectrum (Caliper Life Sciences®, Alameda, CA) after animal was injected with luciferin (100 mg/kg). […]
Grafted cells in immunocompetent hosts readily expressed exogenous genes, such as Luciferase and Histone H2B-RFP (FIG. 1B-D), which were transduced to the cells with lentivirus. […] Importantly, the tissue organoid with expression of exogenous gene, such as Luciferase and H2B-RFP, was stable in vivo for more than 5 months in immunocompetent hosts, as determined by intravital bioluminescence imaging and tissue histology. […]

[3] = GLP1 level in blood by ELISA, CD1 mice grafted with mouse skin organoids; assay type: in vivo
Method: To investigate the potential therapeutic effect of GLP1 in vivo, skin organoid cultures with epidermal keratinocytes targeted with a GLP1-expression vector or a control vector, and transplant the organoids to CD1 host animals (FIGS. 11A and 11B-C) were prepared. […] Expression of GLP1 in grafted animals was stable for more than 3 months (FIG. 11K).

[4] = GLP1 level in blood by ELISA, nude mice grafted with human skin organoids; assay type: in vivo, mouse; conditions: human GLP1-expressing grafts, doxycycline food
Source text: The engineered cells stratified and formed skin organoids in vitro, which were transplanted to nude hosts (FIG. 13G-H).

epidermal stem cells = experiment: Anchorage-independent growth in soft agar; conditions: SCC cancer initiating cells as positive control

**Q.** Which “GLP1 production and secretion” value (mouse epidermal cells; GLP1/GGBP expression cassette, constitutive) does the source give for GLP1 here?
**A.** The value was “robust GLP1 production and secretion”.

**Q.** What about the GLP1 production (mouse epidermal cells; tetracycline-inducible cassette, doxycycline stimulation) of the same substance?
**A.** The GLP1 production was “robust GLP1 production upon stimulation with doxycycline in a dose-dependent manner”.

**Q.** What about the “insulin secretion induced by conditioned medium” value (insulinoma cells; conditioned medium from mouse epidermal cells) of the same substance?
**A.** The value was “significantly induce secretion of insulin”.

**Q.** What about the “insulin secretion induced by secreted GLP1 fusion protein” value (insulinoma cells; from human epidermal cells) of the same substance?
**A.** Its value is “induced insulin secretion in vitro”.

**Q.** What about the insulin resistance [1] of the same substance?
**A.** The insulin resistance was “significantly reduced insulin resistance”.

**Q.** What about the “rejection of skin grafts after transplantation” value [2] of the same substance?
**A.** Its value is “No significant rejection of the skin grafts has been observed”.

**Q.** What about the “level of GLP1 in the blood” value ([3]; food containing doxycycline) of the same substance?
**A.** Its value is “significantly enhanced level of GLP1 in the blood”.

**Q.** And the “duration of stable GLP1 expression in grafted animals” value ([3]; mouse, in vivo)?
**A.** Its value is “more than 3 months”.

**Q.** And the “GLP1 in the blood” value [4]?
**A.** Its value is “significant secretion of GLP1 was detected in the blood”.

**Q.** What about the “anchorage-independent growth (tumorigenicity)” value (epidermal stem cells) of the same substance?
**A.** Its value is “cannot grow in suspension”.
